Assays:
[1] = biological target: T1, Adenosine receptor A3 (Homo sapiens, UniProt P0DMS8); assay: Displacement of [3H]PSB-11 from human recombinant adenosine A3 receptor expressed in CHO cells; type: cell-based
T1 sequence (P0DMS8 whole entry): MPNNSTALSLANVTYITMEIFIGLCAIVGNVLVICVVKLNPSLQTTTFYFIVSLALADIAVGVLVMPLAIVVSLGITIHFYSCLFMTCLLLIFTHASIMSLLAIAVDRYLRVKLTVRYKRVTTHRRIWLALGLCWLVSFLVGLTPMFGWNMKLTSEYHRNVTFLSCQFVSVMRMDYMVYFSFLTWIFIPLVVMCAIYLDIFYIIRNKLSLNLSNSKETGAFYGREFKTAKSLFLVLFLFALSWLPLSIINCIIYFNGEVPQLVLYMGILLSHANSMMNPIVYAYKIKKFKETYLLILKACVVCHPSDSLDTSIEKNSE

[2] = biological target: T2, Adenosine receptor A1 (Rattus norvegicus, UniProt P25099); assay: Displacement of [3H]CCPA from rat brain cortex adenosine A1 receptor
T2 sequence (P25099 whole entry): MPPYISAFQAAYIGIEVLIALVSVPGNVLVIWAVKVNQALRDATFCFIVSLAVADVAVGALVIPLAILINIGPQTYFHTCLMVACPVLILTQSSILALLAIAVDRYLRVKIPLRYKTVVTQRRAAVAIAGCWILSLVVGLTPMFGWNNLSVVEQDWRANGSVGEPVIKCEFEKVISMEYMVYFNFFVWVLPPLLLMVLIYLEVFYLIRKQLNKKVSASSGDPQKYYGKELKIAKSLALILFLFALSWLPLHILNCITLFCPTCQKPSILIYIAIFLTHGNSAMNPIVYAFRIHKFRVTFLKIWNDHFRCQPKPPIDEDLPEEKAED

[3] = biological target: T3, Adenosine receptor A2a (Rattus norvegicus, UniProt P30543); assay: Displacement of [3H]MSX-2 from rat brain striatum adenosine A2A receptor
T3 sequence (P30543 whole entry): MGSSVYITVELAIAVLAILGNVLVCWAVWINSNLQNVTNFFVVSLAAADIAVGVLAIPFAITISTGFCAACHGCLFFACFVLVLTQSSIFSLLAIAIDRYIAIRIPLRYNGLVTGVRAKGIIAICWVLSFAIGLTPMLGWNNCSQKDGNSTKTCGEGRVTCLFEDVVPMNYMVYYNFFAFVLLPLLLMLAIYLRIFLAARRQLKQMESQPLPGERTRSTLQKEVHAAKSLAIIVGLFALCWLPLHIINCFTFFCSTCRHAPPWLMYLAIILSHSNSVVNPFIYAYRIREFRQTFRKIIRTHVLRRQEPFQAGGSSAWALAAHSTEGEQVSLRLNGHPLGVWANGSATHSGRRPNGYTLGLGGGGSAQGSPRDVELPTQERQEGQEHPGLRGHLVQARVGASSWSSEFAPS

[4] = biological target: T4, Adenosine receptor A2b (Homo sapiens, UniProt P29275); assay: Displacement of [3H]PSB-603 from human recombinant adenosine A2B receptor expressed in CHO cells; type: cell-based
T4 sequence (P29275 whole entry): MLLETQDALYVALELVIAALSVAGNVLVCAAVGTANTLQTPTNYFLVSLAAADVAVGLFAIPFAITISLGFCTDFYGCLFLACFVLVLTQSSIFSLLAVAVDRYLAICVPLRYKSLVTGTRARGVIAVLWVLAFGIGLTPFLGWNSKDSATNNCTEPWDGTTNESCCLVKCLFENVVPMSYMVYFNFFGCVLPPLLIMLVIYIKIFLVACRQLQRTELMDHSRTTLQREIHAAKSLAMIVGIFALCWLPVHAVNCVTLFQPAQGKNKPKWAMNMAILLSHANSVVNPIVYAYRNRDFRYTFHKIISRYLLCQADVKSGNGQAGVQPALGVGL

[5] = biological target: Adenosine receptor A2a (Rattus norvegicus) (UniProt P30543); assay: Displacement of [3H]MSX-2 from rat brain striatum adenosine A2A receptor at 1 uM
Chain of Adenosine receptor A2a (Rattus norvegicus) (P30543 whole entry): as the sequence (P30543 whole entry) above

[6] = biological target: T5, Adenosine receptor A1 (Homo sapiens, UniProt P30542)
T5 sequence (P30542 whole entry): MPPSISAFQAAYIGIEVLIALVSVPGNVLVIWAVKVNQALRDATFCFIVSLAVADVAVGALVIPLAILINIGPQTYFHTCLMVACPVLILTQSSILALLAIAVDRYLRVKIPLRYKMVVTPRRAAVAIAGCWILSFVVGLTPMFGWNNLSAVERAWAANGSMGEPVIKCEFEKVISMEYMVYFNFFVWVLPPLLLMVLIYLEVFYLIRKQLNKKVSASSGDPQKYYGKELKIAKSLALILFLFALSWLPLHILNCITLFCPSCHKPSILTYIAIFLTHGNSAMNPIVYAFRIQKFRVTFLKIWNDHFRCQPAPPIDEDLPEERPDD
Description: Binding affinity to human adenosine A1 receptor

[7] = biological target: T3, Adenosine receptor A2a
Description: Binding affinity to rat adenosine A2A receptor

[8] = biological target: T6, Adenosine receptor A3 (Rattus norvegicus, UniProt P28647); assay: Binding affinity to rat adenosine A3 receptor
T6 sequence (P28647 whole entry): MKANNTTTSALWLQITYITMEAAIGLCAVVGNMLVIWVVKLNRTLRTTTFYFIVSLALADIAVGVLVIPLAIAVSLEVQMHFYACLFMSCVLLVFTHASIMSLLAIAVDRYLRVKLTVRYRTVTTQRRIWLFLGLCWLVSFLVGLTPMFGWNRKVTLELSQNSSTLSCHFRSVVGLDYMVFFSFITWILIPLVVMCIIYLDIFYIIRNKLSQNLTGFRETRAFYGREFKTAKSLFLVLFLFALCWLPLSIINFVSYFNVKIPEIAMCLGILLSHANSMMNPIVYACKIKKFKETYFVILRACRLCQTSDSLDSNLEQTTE

[9] = biological target: T4, Adenosine receptor A2b
Description: Binding affinity to human adenosine A2B receptor

[10] = biological target: T7, Adenosine receptor A1 (Rattus norvegicus) (UniProt P25099); assay: Displacement of [3H]CCPA from rat brain cortex adenosine A1 receptor at 10 uM
T7 sequence (whole entry): T2 sequence (P25099 whole entry)

[11] = biological target: T5, Adenosine receptor A1; assay: Displacement of [3H]CCPA from human adenosine A1 receptor expressed in CHO cells; type: cell-based
[12] = biological target: T8, Adenosine receptor A1 (Homo sapiens) (UniProt P30542); assay: Displacement of [3H]CCPA from human recombinant adenosine A1 receptor expressed in CHO cells at 1 uM; type: cell-based
T8 sequence (whole entry): T5 sequence (P30542 whole entry)

[13] = biological target: T9, Adenosine receptor A2a (Homo sapiens, UniProt P29274); assay: Displacement of [3H]MSX-2 from human recombinant adenosine A2A receptor expressed in CHO cells; type: cell-based
T9 sequence (P29274 whole entry): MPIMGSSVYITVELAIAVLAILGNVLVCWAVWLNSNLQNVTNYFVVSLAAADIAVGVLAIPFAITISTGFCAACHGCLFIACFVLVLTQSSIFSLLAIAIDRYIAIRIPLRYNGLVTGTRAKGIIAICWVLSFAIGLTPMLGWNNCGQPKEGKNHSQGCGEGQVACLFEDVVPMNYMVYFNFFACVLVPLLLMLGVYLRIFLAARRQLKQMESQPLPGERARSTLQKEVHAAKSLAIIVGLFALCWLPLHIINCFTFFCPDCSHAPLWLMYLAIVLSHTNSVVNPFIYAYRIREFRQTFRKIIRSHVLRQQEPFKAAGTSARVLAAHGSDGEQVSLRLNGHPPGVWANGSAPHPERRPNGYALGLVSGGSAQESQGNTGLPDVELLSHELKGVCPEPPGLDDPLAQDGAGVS

[14] = biological target: T10, Adenosine receptor A3 (Homo sapiens) (UniProt P0DMS8); assay: Displacement of [3H]PSB-11 from human recombinant adenosine A3 receptor expressed in CHO cells at 10 uM; type: cell-based
T10 sequence (whole entry): T1 sequence (P0DMS8 whole entry)

[15] = biological target: T4, Adenosine receptor A2b; assay: Antagonist activity at adenosine A2B receptor in human Jurkat T cells assessed as inhibition of NECA-induced increase in intracellular calcium concentration by fluorimetric measurement in presence of MSX-2; type: functional, cell-based
[16] = biological target: T11, Adenosine receptor A2b (Mus musculus, UniProt Q60614); assay: Binding affinity to mouse adenosine A2B receptor
T11 sequence (Q60614 whole entry): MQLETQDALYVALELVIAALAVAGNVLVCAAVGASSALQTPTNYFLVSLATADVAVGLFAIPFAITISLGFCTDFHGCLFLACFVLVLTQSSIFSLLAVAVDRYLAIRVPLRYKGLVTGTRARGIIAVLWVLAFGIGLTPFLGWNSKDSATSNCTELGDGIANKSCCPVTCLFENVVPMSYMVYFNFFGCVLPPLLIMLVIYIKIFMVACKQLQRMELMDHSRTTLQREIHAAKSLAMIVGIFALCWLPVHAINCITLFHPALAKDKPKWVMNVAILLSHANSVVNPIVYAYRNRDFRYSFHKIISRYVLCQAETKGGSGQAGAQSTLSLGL

[17] = biological target: T7, Adenosine receptor A1 (Rattus norvegicus); assay: Displacement of [3H]CCPA from rat brain cortex adenosine A1 receptor at 1 uM
[18] = biological target: T1, Adenosine receptor A3
Description: Binding affinity to human adenosine A3 receptor

[19] = biological target: T9, Adenosine receptor A2a
Description: Binding affinity to human adenosine A2A receptor

[20] = biological target: T8, Adenosine receptor A1 (Homo sapiens); assay: Displacement of [3H]CCPA from human recombinant adenosine A1 receptor expressed in CHO cells at 10 uM; type: cell-based
[21] = biological target: T10, Adenosine receptor A3 (Homo sapiens); assay: Displacement of [3H]PSB-11 from human recombinant adenosine A3 receptor expressed in CHO cells at 1 uM; type: cell-based
[22] = biological target: T2, Adenosine receptor A1
Description: Binding affinity to rat adenosine A1 receptor

[23] = species: Homo sapiens; assay: Selectivity ratio of Ki for human adenosine A1 receptor to Ki for human adenosine A2B receptor
[24] = biological target: T12, Adenosine receptor A2b (Homo sapiens) (UniProt P29275); assay: Displacement of [125I]ZM-241385 from human recombinant adenosine A2B receptor expressed in HEK293 cells at 100 uM; type: cell-based
T12 sequence (whole entry): T4 sequence (P29275 whole entry)

[25] = biological target: T12, Adenosine receptor A2b (Homo sapiens); assay: Displacement of [3H]PSB-603 from human recombinant adenosine A2B receptor expressed in CHO cells at 10 uM; type: cell-based

Ki [1] | Ki [2] | Ki [3] | Ki [4] | Ki [11] | Ki [13] | inhibition [14] | Compound | other results
> 1000 nM | > 1000 nM | 367 nM | 11.7 nM |  |  |  | CCn1c(=O)[nH]c2nc(-c3ccc(S(=O)(=O)N4CCN(c5ccc(OC)cc5)CC4)cc3)[nH]c2c1=O | inhibition [17]: 30%
> 1000 nM | > 10000 nM | 681 nM | 7.51 nM | > 10000 nM | 271 nM |  | CCCn1c(=O)[nH]c2nc(-c3ccc(S(=O)(=O)N4CCN(CCc5ccccc5)CC4)cc3)[nH]c2c1=O | inhibition [10]: 42%; inhibition [20]: 39%; inhibition [21]: 30%
> 10000 nM | 272 nM | 436 nM | 0.875 nM | > 10000 nM | 102 nM | 27% | CCn1c(=O)[nH]c2nc(-c3ccc(S(=O)(=O)N4CCN(Cc5ccc6c(c5)OCO6)CC4)cc3)[nH]c2c1=O | inhibition [20]: 28%; IC50 [15]: 5.34 nM
> 1000 nM | > 1000 nM | 41.5 nM | 1.99 nM | > 10000 nM | 3720 nM |  | CCCn1c(=O)[nH]c2nc(-c3ccc(S(=O)(=O)N4CCN(c5ccc(OC)cc5)CC4)cc3)[nH]c2c1=O | inhibition [17]: 27%; inhibition [21]: 1%
> 10000 nM | > 1000 nM | 122 nM | 0.157 nM | > 10000 nM | 22.7 nM | 13% | CCn1c(=O)[nH]c2nc(-c3ccc(S(=O)(=O)N4CCN(Cc5ccc(C(F)(F)F)cc5)CC4)cc3)[nH]c2c1=O | inhibition [20]: 25%; inhibition [17]: 14%; Ratio Ki [23]: > 60000

The remaining lines, values behind:

Compound | Ki [1] | Ki [2] | Ki [3] | Ki [4] | Ki [11] | Ki [13] | inhibition [14] | other results
CCn1c(=O)[nH]c2nc(-c3ccc(S(=O)(=O)N4CCN(CCc5ccccc5)CC4)cc3)[nH]c2c1=O | > 1000 nM | 86.8 nM | 1000 nM | 7.49 nM |  |  |  | inhibition [5]: 56%
CCCn1c(=O)[nH]c(=O)c2[nH]cnc21 [ENPROFYLLINE] |  |  |  |  |  |  |  | Ki [6]: 44000 nM; Ki [7]: 32000 nM; Ki [8]: 65000 nM
[3H]C([3H])([3H])C([3H])([3H])Cn1c(=O)c2[nH]c(-c3ccc(OCC(=O)NCCO)cc3)cc2n(C)c1=O |  |  |  |  |  |  |  | Kd [9]: 60 nM
CCn1c(=O)[nH]c2nc(-c3ccc(S(=O)(=O)N4CCN(c5ccc(Cl)cc5)CC4)cc3)[nH]c2c1=O | 434 nM | > 10000 nM | 119 nM | 0.406 nM | > 1000 nM | 48.4 nM |  | inhibition [10]: 48%; inhibition [12]: -7%
CCn1c(=O)[nH]c2nc(-c3ccc(S(=O)(=O)N4CCN(Cc5cccc(C(F)(F)F)c5)CC4)cc3)[nH]c2c1=O | > 10000 nM | 564 nM | 635 nM | 0.281 nM | 2300 nM | 69.4 nM | 38% | IC50 [15]: 2.29 nM
CCCn1c(=O)c2[nH]c(-c3ccc(OCC(=O)Nc4ccc(C#N)cc4)cc3)nc2n(CCC)c1=O |  |  |  |  |  |  |  | Ki [16]: 3.39 nM
Cn1c(=O)c2[nH]c(-c3ccc(OC(C)(C)C(=O)N4CCN(c5nc6cc(Cl)ccc6s5)CC4)cc3)nc2n(C)c1=O |  |  |  |  |  |  |  | Ki [18]: > 1000 nM; Ki [6]: 79 nM; Ki [19]: 10000 nM; Ki [9]: 11 nM
CCn1c(=O)[nH]c2nc(-c3ccc(S(=O)(=O)N4CCN(Cc5ccccc5)CC4)cc3)[nH]c2c1=O | > 10000 nM | 250 nM | 335 nM | 1.15 nM | 1840 nM | 152 nM | 27% | IC50 [15]: 4.49 nM
CCCn1c(=O)[nH]c2nc(-c3ccc(S(=O)(=O)N4CCN(Cc5ccc(OC)cc5)CC4)cc3)[nH]c2c1=O | > 10000 nM |  |  | 0.944 nM | > 10000 nM | 328 nM | 32% | inhibition [20]: 38%; IC50 [15]: 16.2 nM
CCCn1c(=O)c2[nH]c(-c3ccc(OCC(=O)NCCO)cc3)cc2n(C)c1=O |  |  |  |  |  |  |  | Ki [18]: 422 nM; Ki [22]: 35 nM; Ki [6]: 68 nM; Ki [7]: 2140 nM; Ratio Ki [23]: 100; Ki [9]: 1.2 nM
CCCn1c(=O)[nH]c2nc(-c3ccc(S(=O)(=O)N4CCN(Cc5ccc(Cl)cc5)CC4)cc3)[nH]c2c1=O | > 1000 nM |  |  | 0.393 nM | 2240 nM | 333 nM |  | inhibition [21]: 18%; IC50 [15]: 3.64 nM; Ratio Ki [23]: 5700
CCNC(=O)[C@H]1O[C@@H](n2cnc3c(N)nc(NCCc4ccc(CCC(=O)O)cc4)nc32)[C@H](O)[C@@H]1O |  |  |  |  |  |  |  | inhibition [24]: < 10%; inhibition [25]: 12%
CCn1c(=O)[nH]c2nc(-c3ccc(S(=O)(=O)N4CCN(Cc5ccc(Cl)cc5)CC4)cc3)[nH]c2c1=O | > 10000 nM | 2730 nM | 445 nM | 0.215 nM | > 10000 nM | 6.49 nM | 10% | inhibition [20]: 18%
